Activity calls are given as the source filed them. Rule as the data show it, for most assays here: actives have a measured Kd and inactives only a lower limit.
Legend:
[1] = biological target: Serine/threonine-protein kinase pim-1 (Homo sapiens, UniProt P11309)
[2] = biological target: Rho-associated protein kinase 1 (Homo sapiens, UniProt Q13464)
[3] = biological target: T1, Serine/threonine-protein kinase Chk1 (Homo sapiens, UniProt O14757)
T1 sequence (O14757 whole entry): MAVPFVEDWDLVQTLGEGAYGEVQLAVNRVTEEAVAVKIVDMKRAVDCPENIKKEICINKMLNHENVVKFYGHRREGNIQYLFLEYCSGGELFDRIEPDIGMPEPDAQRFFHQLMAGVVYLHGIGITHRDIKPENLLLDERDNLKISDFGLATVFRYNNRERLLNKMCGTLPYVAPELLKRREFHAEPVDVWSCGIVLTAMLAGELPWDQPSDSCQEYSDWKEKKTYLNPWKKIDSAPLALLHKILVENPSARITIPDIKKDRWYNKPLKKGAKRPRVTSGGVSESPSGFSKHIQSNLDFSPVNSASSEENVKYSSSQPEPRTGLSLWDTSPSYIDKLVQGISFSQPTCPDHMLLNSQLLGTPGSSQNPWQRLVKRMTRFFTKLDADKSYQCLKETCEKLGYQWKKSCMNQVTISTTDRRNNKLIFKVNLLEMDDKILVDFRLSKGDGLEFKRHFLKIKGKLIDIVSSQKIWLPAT

[4] = biological target: Serine/threonine-protein kinase B-raf (Homo sapiens, UniProt P15056)
[5] = biological target: Cyclin-dependent kinase 3 (Homo sapiens, UniProt Q00526)
[6] = biological target: T2, Serine/threonine-protein kinase Nek1 (Homo sapiens, UniProt Q96PY6)
T2 sequence (Q96PY6 whole entry): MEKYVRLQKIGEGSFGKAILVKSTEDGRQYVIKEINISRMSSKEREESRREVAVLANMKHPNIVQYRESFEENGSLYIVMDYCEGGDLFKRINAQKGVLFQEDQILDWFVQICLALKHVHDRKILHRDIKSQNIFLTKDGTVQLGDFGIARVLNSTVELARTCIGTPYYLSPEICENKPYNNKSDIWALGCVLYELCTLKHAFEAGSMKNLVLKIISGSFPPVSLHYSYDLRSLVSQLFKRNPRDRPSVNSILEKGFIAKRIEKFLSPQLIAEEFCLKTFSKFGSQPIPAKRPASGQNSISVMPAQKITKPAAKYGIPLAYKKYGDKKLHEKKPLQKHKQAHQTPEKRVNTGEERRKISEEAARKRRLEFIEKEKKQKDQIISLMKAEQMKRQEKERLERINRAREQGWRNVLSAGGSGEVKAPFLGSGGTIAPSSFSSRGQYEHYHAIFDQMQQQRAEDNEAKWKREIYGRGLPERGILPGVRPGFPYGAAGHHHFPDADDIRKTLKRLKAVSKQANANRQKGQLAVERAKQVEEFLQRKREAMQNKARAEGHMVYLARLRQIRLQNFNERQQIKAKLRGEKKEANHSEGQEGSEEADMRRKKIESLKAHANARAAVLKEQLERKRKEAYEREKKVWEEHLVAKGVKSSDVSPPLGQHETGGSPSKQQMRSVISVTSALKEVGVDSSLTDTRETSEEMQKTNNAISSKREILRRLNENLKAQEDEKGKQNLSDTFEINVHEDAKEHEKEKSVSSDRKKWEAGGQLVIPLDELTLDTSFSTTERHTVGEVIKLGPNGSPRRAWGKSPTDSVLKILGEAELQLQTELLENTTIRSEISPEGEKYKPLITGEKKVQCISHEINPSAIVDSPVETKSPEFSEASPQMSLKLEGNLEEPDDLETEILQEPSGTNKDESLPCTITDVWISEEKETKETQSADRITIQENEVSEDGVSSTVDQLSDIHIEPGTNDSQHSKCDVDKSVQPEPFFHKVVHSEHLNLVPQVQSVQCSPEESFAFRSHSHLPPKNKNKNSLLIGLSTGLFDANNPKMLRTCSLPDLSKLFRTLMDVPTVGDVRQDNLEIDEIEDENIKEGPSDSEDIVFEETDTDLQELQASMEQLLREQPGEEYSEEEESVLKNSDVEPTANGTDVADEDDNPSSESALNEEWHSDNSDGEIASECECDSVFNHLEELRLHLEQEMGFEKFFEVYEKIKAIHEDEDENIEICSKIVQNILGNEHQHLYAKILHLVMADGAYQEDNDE

[7] = biological target: T3, Interleukin-1 receptor-associated kinase 4 (Homo sapiens, UniProt Q9NWZ3)
T3 sequence (Q9NWZ3 whole entry): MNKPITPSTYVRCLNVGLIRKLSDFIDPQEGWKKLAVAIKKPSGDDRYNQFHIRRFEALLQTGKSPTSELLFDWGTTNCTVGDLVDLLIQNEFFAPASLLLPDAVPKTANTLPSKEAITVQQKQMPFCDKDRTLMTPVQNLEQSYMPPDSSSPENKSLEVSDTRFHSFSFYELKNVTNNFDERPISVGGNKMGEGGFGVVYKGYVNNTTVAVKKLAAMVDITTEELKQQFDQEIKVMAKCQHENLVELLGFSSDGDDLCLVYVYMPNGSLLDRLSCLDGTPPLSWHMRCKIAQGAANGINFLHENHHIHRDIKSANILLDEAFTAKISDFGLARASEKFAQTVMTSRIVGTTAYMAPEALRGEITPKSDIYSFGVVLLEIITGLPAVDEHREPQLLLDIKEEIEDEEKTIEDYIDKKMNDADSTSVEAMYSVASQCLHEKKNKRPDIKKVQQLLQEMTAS

[8] = biological target: Platelet-derived growth factor receptor beta (Homo sapiens, UniProt P09619)
Ephrin type-A receptor 4 = Ephrin type-A receptor 4 (Homo sapiens, UniProt P54764)
[9] = biological target: Tyrosine-protein kinase ABL1 (Homo sapiens, UniProt P00519)
[10] = biological target: Tyrosine-protein kinase SYK (Homo sapiens, UniProt P43405)
Also: in the data inactive means no Kd found up to 30 µM.

Sequence of Tyrosine-protein kinase ABL1 (P00519 whole entry): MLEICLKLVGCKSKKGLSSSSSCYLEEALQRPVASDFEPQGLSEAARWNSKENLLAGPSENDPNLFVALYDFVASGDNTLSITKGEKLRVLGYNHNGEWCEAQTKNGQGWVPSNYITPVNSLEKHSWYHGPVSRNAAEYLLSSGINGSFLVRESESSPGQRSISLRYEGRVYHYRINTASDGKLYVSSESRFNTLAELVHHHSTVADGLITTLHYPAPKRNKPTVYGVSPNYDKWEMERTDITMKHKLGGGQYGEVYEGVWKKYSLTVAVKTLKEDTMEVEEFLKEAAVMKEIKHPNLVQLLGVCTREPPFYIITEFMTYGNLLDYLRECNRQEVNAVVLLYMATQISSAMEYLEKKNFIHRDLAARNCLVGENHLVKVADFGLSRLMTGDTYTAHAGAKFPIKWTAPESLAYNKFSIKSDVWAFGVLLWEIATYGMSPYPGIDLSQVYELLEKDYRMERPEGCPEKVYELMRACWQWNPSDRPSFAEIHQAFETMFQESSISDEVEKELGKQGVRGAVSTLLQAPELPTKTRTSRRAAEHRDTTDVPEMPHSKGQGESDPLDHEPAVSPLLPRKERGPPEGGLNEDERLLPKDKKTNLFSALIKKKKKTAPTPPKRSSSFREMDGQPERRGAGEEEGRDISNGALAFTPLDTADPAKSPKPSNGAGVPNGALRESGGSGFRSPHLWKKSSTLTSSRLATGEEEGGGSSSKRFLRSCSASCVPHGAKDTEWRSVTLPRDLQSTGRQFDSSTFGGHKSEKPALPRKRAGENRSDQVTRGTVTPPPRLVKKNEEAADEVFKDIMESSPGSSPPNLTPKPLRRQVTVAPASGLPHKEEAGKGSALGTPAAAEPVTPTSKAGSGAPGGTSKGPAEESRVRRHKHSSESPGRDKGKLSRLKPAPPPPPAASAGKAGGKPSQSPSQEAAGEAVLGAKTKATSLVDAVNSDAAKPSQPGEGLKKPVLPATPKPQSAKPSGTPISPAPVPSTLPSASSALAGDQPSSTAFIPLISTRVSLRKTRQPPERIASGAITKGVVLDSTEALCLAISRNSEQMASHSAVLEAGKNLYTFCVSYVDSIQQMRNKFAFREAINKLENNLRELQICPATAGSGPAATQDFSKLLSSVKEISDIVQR
Sequence of Rho-associated protein kinase 1 (Q13464 whole entry): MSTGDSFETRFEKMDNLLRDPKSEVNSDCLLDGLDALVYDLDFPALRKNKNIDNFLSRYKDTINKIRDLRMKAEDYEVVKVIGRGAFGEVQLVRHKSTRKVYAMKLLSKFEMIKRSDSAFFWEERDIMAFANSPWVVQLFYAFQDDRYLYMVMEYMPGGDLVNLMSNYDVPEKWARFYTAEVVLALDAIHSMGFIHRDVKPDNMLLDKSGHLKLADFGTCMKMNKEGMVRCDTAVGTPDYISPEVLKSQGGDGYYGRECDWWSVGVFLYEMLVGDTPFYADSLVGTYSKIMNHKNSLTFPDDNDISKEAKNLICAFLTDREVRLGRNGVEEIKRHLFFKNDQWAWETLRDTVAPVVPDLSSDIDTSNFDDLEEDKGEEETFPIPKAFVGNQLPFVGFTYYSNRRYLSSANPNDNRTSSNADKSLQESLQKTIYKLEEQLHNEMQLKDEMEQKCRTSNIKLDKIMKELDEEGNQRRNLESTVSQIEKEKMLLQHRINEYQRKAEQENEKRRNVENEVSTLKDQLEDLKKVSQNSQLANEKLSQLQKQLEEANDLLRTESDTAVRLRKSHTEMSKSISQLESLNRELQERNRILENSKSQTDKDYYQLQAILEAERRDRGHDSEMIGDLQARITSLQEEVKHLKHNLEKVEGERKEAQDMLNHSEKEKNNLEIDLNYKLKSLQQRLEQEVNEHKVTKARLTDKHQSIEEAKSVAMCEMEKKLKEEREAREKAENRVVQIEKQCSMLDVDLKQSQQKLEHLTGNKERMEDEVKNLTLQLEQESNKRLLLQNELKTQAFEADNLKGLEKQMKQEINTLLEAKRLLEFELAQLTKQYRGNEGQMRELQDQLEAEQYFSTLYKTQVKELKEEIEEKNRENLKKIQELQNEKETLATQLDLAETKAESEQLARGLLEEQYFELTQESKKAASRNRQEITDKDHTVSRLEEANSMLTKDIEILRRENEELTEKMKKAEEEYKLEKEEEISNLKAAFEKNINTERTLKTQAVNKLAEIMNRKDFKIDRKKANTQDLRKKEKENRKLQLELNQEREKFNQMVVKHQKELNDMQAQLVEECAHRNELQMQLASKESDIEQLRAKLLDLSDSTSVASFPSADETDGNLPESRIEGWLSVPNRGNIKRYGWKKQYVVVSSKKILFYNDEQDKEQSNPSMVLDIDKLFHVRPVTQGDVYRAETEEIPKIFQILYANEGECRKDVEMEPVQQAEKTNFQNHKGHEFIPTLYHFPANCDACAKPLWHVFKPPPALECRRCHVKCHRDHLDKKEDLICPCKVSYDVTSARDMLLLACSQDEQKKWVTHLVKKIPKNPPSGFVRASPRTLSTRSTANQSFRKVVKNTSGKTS
Sequence of Cyclin-dependent kinase 3 (Q00526 whole entry): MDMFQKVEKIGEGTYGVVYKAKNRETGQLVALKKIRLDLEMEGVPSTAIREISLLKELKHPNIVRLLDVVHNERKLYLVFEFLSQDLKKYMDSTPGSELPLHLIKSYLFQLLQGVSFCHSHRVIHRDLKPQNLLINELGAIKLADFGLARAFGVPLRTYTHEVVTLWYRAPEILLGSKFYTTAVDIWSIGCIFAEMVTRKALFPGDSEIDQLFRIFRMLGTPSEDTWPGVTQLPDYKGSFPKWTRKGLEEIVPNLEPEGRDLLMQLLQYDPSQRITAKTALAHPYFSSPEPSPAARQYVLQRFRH
Sequence of Serine/threonine-protein kinase B-raf (P15056 whole entry): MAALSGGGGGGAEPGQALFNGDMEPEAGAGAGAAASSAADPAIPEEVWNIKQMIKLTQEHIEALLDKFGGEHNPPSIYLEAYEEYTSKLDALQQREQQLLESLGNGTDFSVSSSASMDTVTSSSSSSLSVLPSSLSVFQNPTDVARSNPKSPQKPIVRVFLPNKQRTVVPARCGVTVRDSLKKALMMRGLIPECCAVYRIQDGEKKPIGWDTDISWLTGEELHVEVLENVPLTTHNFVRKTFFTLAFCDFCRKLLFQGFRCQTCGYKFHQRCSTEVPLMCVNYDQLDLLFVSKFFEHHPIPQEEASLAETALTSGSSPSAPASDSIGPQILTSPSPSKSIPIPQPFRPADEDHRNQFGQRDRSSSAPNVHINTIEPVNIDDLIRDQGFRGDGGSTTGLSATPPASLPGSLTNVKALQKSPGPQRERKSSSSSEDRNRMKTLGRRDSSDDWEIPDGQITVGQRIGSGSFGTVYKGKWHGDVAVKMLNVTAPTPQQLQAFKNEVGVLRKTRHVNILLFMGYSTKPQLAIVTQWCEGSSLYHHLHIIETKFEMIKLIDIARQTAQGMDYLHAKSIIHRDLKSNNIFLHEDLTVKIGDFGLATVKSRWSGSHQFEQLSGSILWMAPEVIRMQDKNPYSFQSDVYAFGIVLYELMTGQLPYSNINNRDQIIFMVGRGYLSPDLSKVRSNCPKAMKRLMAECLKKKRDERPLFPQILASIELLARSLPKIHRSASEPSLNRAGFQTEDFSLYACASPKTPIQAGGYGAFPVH
Sequence of Serine/threonine-protein kinase pim-1 (P11309 whole entry): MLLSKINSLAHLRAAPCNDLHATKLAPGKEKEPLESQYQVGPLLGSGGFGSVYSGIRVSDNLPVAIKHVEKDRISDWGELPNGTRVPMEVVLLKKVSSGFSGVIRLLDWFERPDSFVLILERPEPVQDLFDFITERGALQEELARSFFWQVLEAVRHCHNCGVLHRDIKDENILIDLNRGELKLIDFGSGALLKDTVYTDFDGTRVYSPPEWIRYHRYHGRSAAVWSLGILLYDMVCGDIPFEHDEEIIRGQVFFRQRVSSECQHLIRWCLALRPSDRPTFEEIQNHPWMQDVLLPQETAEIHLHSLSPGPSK
Sequence of Platelet-derived growth factor receptor beta (P09619 whole entry): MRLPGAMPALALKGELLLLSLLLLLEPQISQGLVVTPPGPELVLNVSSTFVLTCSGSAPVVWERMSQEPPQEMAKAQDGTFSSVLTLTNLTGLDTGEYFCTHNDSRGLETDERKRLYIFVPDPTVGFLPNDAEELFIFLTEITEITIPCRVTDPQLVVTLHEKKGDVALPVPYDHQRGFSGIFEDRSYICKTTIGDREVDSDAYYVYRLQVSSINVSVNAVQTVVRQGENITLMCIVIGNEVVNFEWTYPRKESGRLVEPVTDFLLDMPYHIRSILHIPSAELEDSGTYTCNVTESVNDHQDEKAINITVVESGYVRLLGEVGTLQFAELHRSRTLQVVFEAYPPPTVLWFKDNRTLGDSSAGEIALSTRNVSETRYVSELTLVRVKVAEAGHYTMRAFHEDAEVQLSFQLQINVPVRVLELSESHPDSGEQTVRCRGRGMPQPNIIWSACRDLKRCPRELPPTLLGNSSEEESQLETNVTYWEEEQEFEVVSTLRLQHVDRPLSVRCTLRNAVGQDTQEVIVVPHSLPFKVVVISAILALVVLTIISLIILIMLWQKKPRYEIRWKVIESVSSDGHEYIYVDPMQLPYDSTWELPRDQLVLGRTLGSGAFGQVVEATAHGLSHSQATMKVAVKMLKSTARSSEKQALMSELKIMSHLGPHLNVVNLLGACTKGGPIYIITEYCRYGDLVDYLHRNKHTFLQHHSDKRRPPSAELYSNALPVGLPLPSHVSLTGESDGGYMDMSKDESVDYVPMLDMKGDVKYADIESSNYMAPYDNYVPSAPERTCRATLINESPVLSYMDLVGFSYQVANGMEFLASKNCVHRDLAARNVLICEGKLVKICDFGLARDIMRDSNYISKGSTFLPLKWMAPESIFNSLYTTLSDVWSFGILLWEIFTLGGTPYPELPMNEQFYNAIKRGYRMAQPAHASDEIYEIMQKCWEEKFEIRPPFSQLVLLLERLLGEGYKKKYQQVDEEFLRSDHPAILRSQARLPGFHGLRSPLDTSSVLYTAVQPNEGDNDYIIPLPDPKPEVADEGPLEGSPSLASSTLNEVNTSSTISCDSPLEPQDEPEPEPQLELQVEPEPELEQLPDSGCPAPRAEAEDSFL

| Structure (SMILES) | Kd [1] | Kd [2] | Kd [3] | Kd [4] | Kd [5] | Kd [6] | Kd [7] | Kd [8] | Kd (Ephrin type-A receptor 4) | Kd [9] | Kd [10] |
| --- | --- | --- | --- | --- | --- | --- | --- | --- | --- | --- | --- |
| Cn1ncc(Cl)c1-c1cc(C(=O)N[C@H](CN)Cc2cccc(F)c2)sc1Cl [AFURESERTIB] | > 30 µM (inactive) | 2.14 µM (active) | > 30 µM (inactive) | > 30 µM (inactive) | > 30 µM (inactive) | > 30 µM (inactive) | > 30 µM (inactive) | > 30 µM (inactive) | > 30 µM (inactive) | > 30 µM (inactive) | > 30 µM (inactive) |
| CC[C@H](Nc1ncnc2[nH]cnc12)c1nc2cccc(F)c2c(=O)n1-c1ccccc1 [IDELALISIB] | > 30 µM (inactive) | > 30 µM (inactive) | > 30 µM (inactive) | > 30 µM (inactive) | > 30 µM (inactive) | > 30 µM (inactive) | > 30 µM (inactive) | > 30 µM (inactive) | > 30 µM (inactive) | > 30 µM (inactive) | > 30 µM (inactive) |
| O=C(O)[C@]1(Cc2cccc(Nc3nccs3)n2)CC[C@@H](Oc2cccc(Cl)c2F)CC1 [MK-5108] | > 30 µM (inactive) | > 30 µM (inactive) | > 30 µM (inactive) | > 30 µM (inactive) | > 30 µM (inactive) | > 30 µM (inactive) | > 30 µM (inactive) | > 30 µM (inactive) | > 30 µM (inactive) | 0.062 µM (active) | > 30 µM (inactive) |
| CN(C)C(=O)c1cc2cnc(Nc3ccc(N4CCNCC4)cn3)nc2n1C1CCCC1 [RIBOCICLIB] | > 30 µM (inactive) | > 30 µM (inactive) | > 30 µM (inactive) | > 30 µM (inactive) | > 30 µM (inactive) | > 30 µM (inactive) | > 30 µM (inactive) | > 30 µM (inactive) | > 30 µM (inactive) | > 30 µM (inactive) | > 30 µM (inactive) |
| C[C@@H]1CN(Cc2ccc(F)cc2)[C@@H](C)CN1C(=O)c1cc2c(C(=O)C(=O)N(C)C)cn(C)c2cc1Cl [TALMAPIMOD] | > 30 µM (inactive) | > 30 µM (inactive) | > 30 µM (inactive) | > 30 µM (inactive) | > 30 µM (inactive) | > 30 µM (inactive) | > 30 µM (inactive) | > 30 µM (inactive) | > 30 µM (inactive) | > 30 µM (inactive) | > 30 µM (inactive) |
| O=C1NC(=O)/C(=C/c2ccc3nccc(-c4ccncc4)c3c2)S1 [GSK-1059615] | 0.205 µM (active) | > 30 µM (inactive) | > 30 µM (inactive) | > 30 µM (inactive) | > 30 µM (inactive) | > 30 µM (inactive) | > 30 µM (inactive) | > 30 µM (inactive) | > 30 µM (inactive) | > 30 µM (inactive) | > 30 µM (inactive) |
| Cn1cc(-c2ccc3nnc(C(F)(F)c4ccc5ncccc5c4)n3n2)cn1 [JNJ-38877605] | > 30 µM (inactive) | > 30 µM (inactive) | > 30 µM (inactive) | > 30 µM (inactive) | > 30 µM (inactive) | > 30 µM (inactive) | > 30 µM (inactive) | > 30 µM (inactive) | > 30 µM (inactive) | > 30 µM (inactive) | > 30 µM (inactive) |
| CO[C@H]1C[C@@H]2CC[C@@H](C)[C@@](O)(O2)C(=O)C(=O)N2CCCC[C@H]2C(=O)O[C@H]([C@H](C)C[C@@H]2CC[C@@H](OCCO)[C@H](OC)C2)CC(=O)[C@H](C)/C=C(\C)[C@@H](O)[C@@H](OC)C(=O)[C@H](C)C[C@H](C)/C=C/C=C/C=C/1C [EVEROLIMUS] | > 30 µM (inactive) | > 30 µM (inactive) | > 30 µM (inactive) | > 30 µM (inactive) | > 30 µM (inactive) | > 30 µM (inactive) | > 30 µM (inactive) | > 30 µM (inactive) | > 30 µM (inactive) | > 30 µM (inactive) | > 30 µM (inactive) |
| Cc1ccc(-n2nc(C(C)(C)C)cc2NC(=O)NCc2cc(F)ccc2Oc2ccc3c(cnn3CCO)c2)cc1 [PEXMETINIB] | > 30 µM (inactive) | > 30 µM (inactive) | > 30 µM (inactive) | 5.23 µM (active) | > 30 µM (inactive) | > 30 µM (inactive) | > 30 µM (inactive) | > 30 µM (inactive) | > 30 µM (inactive) | 0.211 µM (active) | > 30 µM (inactive) |
| CC(=O)Nc1cccc(-n2c(=O)n(C3CC3)c(=O)c3c(Nc4ccc(I)cc4F)n(C)c(=O)c(C)c32)c1 [TRAMETINIB] | > 30 µM (inactive) | > 30 µM (inactive) | > 30 µM (inactive) | > 30 µM (inactive) | > 30 µM (inactive) | > 30 µM (inactive) | > 30 µM (inactive) | > 30 µM (inactive) | > 30 µM (inactive) | > 30 µM (inactive) | > 30 µM (inactive) |
| CNC(=O)c1ccc(-c2cnc3ncc(Cc4ccc5ncccc5c4)n3n2)cc1F [CAPMATINIB] | > 30 µM (inactive) | > 30 µM (inactive) | > 30 µM (inactive) | > 30 µM (inactive) |  | > 30 µM (inactive) | > 30 µM (inactive) | > 30 µM (inactive) | > 30 µM (inactive) | > 30 µM (inactive) | > 30 µM (inactive) |
| COC(=O)[C@@]1(O)C[C@H]2O[C@]1(C)n1c3ccccc3c3c4c(c5c6ccccc6n2c5c31)C(=O)NC4 [K-252A] | > 30 µM (inactive) | > 30 µM (inactive) | 0.122 µM (active) | > 30 µM (inactive) | 0.032 µM (active) | > 30 µM (inactive) | 0.009 µM (active) | 1.01 µM (active) | > 30 µM (inactive) | > 30 µM (inactive) |  |
| O=C(c1ccc(F)c(F)c1Nc1ccc(I)cc1F)N1CC(O)([C@@H]2CCCCN2)C1 [COBIMETINIB] | > 30 µM (inactive) | > 30 µM (inactive) | > 30 µM (inactive) | > 30 µM (inactive) |  | > 30 µM (inactive) | > 30 µM (inactive) | > 30 µM (inactive) | > 30 µM (inactive) | > 30 µM (inactive) | > 30 µM (inactive) |

Source: ChEMBL document CHEMBL3991601, “The target landscape of clinical kinase drugs” (Science, 2017)
